Results published in paper PMC9403976, “Elucidating the path to Plasmodium prolyl-tRNA synthetase inhibitors that overcome halofuginone resistance” (Nature Communications, 2022).
“And” between values parts separate entries of the source, which are not always exact repeats. Identical values can stand only once. Like-named read-outs stand apart in the source and are kept apart here.

Assays:
P. falciparum Dd2-2D4 = assay: P. falciparum asexual blood stage (ABS) growth assay, SYBR Green, 72 h, wild-type parasites; type: cell-based, Plasmodium falciparum; conditions: for EC50: Plasmodium falciparum, DD2
[1] = tested on: halofuginone-induced P. falciparum (elevated proline homeostasis); assay: P. falciparum ABS growth assay, SYBR Green, 72 h, halofuginone-induced parasites; type: cell-based, Plasmodium falciparum; conditions: for EC50: Plasmodium falciparum, DD2
Excerpt: (§1) Parasites were maintained under standard culture conditions as described previously[56],[57]. […] The P. falciparum Dd2 cell lines used in this study (Dd2-2D4, halofuginone-induced, and HFGR-I) have previously undergone whole genome sequencing in our labs. They were also routinely assayed and EC50 values determined using the ABS growth assay (see below) with a panel of standard antimalarial compounds, including halofuginone which has differential activity for the three Dd2 lines used in these experiments. Data were cross-referenced for consistency with literature reported values and data previously acquired in the lab.
(§2) This assay was performed as previously described. In short, P. falciparum erythrocytic-stage parasites at 1% parasitemia and 1% hematocrit in RPMI + 0.5% Albumax were seeded at 40 μL/well in 384-well plates with test compounds in triplicate, dose-response format with 10 μM dihydroartemisinin as a kill-control and blank (no compound) wells as a growth-control. […] After 72 h, growth was quantified by measuring fluorescence (Molecular Devices SpectraMax iD5) following SYBR Green 1 staining. Data were analyzed in Excel and plotted in PRISM (V. 8.4.3–9.1.0, GraphPad).

[2] = tested on: HFGR-I P. falciparum (elevated proline homeostasis and PfcProRS^L482H); assay: P. falciparum ABS growth assay, SYBR Green, 72 h, HFGR-I parasites; type: cell-based, Plasmodium falciparum; conditions: for EC50: Plasmodium falciparum, DD2, read-out: Dd2 (EC50 [nM]) HFGR1 mean
Excerpt: as §1, §2

HsProRS = HsProRS (Homo sapiens, UniProt P07814); assay: TR-FRET ligand displacement assay with tracer MAT379 (CoraFluor-1-Halo and anti-His6 antibody formats); type: binding; parameters: made in house; host or cells: E. coli SoluBL-21
PfcProRS = target: T1, PfcProRS (Plasmodium falciparum, UniProt Q8I5R7); type: binding; conditions: for Normalized response, dose-response replicates (SI Fig 14): replicates 1-3; for PfcProRS -- best Kd: SI Fig 16a, values on -log scale
T1 construct: made in house; host or cells: E. coli SoluBL-21

[3] = SI Fig 16b, values on -log scale, read-out: ABS - Dd2-2D4 (converted)
[4] = HsProRS (KD [nM]) + 100 μM proline mean, + 100 μM proline

HsProRS, sequence (P07814 996-1512): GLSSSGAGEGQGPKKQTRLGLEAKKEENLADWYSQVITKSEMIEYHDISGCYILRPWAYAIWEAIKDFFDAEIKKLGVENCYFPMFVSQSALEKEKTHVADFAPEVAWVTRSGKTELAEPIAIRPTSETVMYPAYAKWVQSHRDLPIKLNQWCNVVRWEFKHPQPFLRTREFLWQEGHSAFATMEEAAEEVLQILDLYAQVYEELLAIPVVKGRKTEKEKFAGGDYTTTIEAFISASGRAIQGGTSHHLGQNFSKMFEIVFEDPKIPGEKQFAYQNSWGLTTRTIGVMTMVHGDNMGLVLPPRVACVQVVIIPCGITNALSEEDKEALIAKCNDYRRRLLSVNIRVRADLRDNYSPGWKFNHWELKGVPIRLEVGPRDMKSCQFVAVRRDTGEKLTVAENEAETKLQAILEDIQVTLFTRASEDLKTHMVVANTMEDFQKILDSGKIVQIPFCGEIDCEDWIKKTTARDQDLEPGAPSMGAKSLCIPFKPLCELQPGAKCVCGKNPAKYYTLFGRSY
T1 sequence (Q8I5R7 249-746): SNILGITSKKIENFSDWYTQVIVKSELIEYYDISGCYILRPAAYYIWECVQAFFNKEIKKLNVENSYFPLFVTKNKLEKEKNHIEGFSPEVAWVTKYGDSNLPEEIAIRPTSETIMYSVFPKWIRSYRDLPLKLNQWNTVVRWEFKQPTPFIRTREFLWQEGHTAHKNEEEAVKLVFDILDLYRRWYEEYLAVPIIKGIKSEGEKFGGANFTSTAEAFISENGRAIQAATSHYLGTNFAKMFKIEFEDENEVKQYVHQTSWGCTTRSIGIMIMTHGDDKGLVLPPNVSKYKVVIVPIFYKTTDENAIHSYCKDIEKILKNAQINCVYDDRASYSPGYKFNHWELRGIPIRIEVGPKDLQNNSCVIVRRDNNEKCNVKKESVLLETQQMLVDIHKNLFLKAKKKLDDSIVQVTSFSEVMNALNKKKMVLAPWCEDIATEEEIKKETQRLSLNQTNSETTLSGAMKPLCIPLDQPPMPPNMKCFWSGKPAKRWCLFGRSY

Compound	EC50 (P. falciparum Dd2-2D4; [3]) [nM]	EC50 [2] [nM]	Kd (HsProRS; [4]) [nM]	Normalized response, dose-response replicates (SI Fig 14) (PfcProRS; Log[inhibitor] (M) -5.000)	Normalized response, dose-response replicates (SI Fig 14) (PfcProRS; Log[inhibitor] (M) -5.301)	Normalized response, dose-response replicates (SI Fig 14) (PfcProRS; Log[inhibitor] (M) -5.601)	Normalized response, dose-response replicates (SI Fig 14) (PfcProRS; Log[inhibitor] (M) -5.904)	Normalized response, dose-response replicates (SI Fig 14) (PfcProRS; Log[inhibitor] (M) -6.208)	Normalized response, dose-response replicates (SI Fig 14) (PfcProRS; Log[inhibitor] (M) -6.509)	Normalized response, dose-response replicates (SI Fig 14) (PfcProRS; Log[inhibitor] (M) -6.796)	Normalized response, dose-response replicates (SI Fig 14) (PfcProRS; Log[inhibitor] (M) -7.108)	Normalized response, dose-response replicates (SI Fig 14) (PfcProRS; Log[inhibitor] (M) -7.409)	Normalized response, dose-response replicates (SI Fig 14) (PfcProRS; Log[inhibitor] (M) -7.710)	Normalized response, dose-response replicates (SI Fig 14) (PfcProRS; Log[inhibitor] (M) -8.000)	Normalized response, dose-response replicates (SI Fig 14) (PfcProRS; Log[inhibitor] (M) -8.301)	Normalized response, dose-response replicates (SI Fig 14) (PfcProRS; Log[inhibitor] (M) -8.602)	Normalized response, dose-response replicates (SI Fig 14) (PfcProRS; Log[inhibitor] (M) -9.000)	Normalized response, dose-response replicates (SI Fig 14) (PfcProRS; Log[inhibitor] (M) -9.301)	PfcProRS -- best Kd (PfcProRS)	other results
Nc1ncnc2c1ncn2[C@@H]1O[C@H](COS(=O)(=O)NC(=O)[C@H]2CCCN2)[C@@H](O)[C@H]1O [D-ProSA, reference compound]	2550	2430	–	–	–	–	–	–	–	–	–	–	–	–	–	–	–	–	–	EC50 (P. falciparum Dd2-2D4; read-out: Dd2 (EC50 [nM]) wildtype (Dd2-2D4) mean): 2550 nM; EC50 ([1]; read-out: Dd2 (EC50 [nM]) halofuginone-induced mean): 2730 nM
CC(C)N(C(=O)Nc1nccnc1C(=O)NC1Cc2ccccc2C1)C(C)C [MAT107 (5)]	–	6850	1020	–	–	–	–	–	–	–	–	–	–	–	–	–	–	–	–	% signal at 10 μM, wildtype (Dd2-2D4) (P. falciparum Dd2-2D4; wildtype (Dd2-2D4), 10 μM): 80.9%; EC50 ([1]; halofuginone-induced, bound given in μM, read-out: Dd2 EC50 halofuginone-induced, bound): > 10000 nM; % signal at 10 μM, halofuginone-induced ([1]; halofuginone-induced, 10 μM): 58.7%; IC50 (HsProRS): > 10000 nM; HsProRS % signal at 10 μM (HsProRS; no added proline/ATP (-), 10 μM): 63.6%
CC(C)(C)OC(=O)NCCCCCC(=O)NC1CCN(C(=O)Nc2nccnc2C(=O)NC2Cc3ccccc3C2)CC1 [compound 41]	2110	–	561	2.54E-01 and 1.79E-01 and 1.37E-01	2.59E-01 and 1.90E-01 and 1.97E-01	2.56E-01 and 2.59E-01 and 2.72E-01	5.14E-01 and 5.00E-01 and 4.61E-01	7.49E-01 and 5.18E-01 and 5.00E-01	8.38E-01 and 7.48E-01 and 7.12E-01	9.37E-01 and 8.75E-01 and 9.23E-01	9.89E-01 and 8.01E-01 and 8.98E-01	9.10E-01 and 9.82E-01 and 9.58E-01	9.67E-01 and 1.08E+00 and 8.83E-01	9.89E-01 and 1.01E+00 and 9.34E-01	1.15E+00 and 9.52E-01 and 9.87E-01	1.13E+00 and 1.02E+00 and 1.04E+00	9.78E-01 and 9.94E-01 and 1.01E+00	1.02E+00 and 9.71E-01 and 8.87E-01	6.740	dose-response value, Replicates 1-3 (SI Fig 2f) ([2]; Log[inhibitor] (M) -6.638): 97; Kd (HsProRS; HsProRS - best Kd, SI Fig 16a, values on -log scale): 139 nM
NCCCCCC(=O)NC1CCN(C(=O)Nc2nccnc2C(=O)NC2Cc3ccccc3C2)CC1 [compound 42]	3120	–	780	2.49E-01 and 1.76E-01 and 2.08E-01	3.00E-01 and 2.27E-01 and 1.95E-01	3.22E-01 and 3.31E-01 and 4.26E-01	5.98E-01 and 5.09E-01 and 6.07E-01	6.69E-01 and 7.19E-01 and 7.06E-01	8.50E-01 and 8.42E-01 and 7.76E-01	8.57E-01 and 7.95E-01 and 8.50E-01	9.38E-01 and 9.24E-01 and 9.33E-01	8.48E-01 and 9.09E-01 and 8.32E-01	1.01E+00 and 1.02E+00 and 9.56E-01	9.91E-01 and 1.13E+00 and 9.71E-01	9.70E-01 and 1.02E+00 and 1.00E+00	1.01E+00 and 9.47E-01 and 9.02E-01	1.03E+00 and 8.54E-01 and 9.74E-01	1.02E+00 and 9.76E-01 and 9.47E-01	6.530	dose-response value, Replicates 1-3 (SI Fig 2f) ([2]; Log[inhibitor] (M) -8.699): 97; Kd (HsProRS; HsProRS (KD [nM]) mean, no added proline/ATP (-)): 674 nM
